This is an account of results in PMC5459853, “Cathepsin S inhibition combines control of systemic and peripheral pathomechanisms of autoimmune tissue injury” (Scientific Reports, 2017).

As usually defined, the EC50 is the midpoint of the concentration-response curve.

For test [1], the target named is T1, Cat-S in human purified B-cells (Homo sapiens, UniProt P25774).
T1 construct: Human B-cells were isolated from whole blood; endogenous in cells; host or cells: primary human CD19+ B cells from whole blood of healthy volunteers
The experiment in a line: lip10 (p10) accumulation assay in human purified B-cells (p10 ELISA). Type of test: cell-based. On the procedure:
Human B-cells were isolated from whole blood using the Whole Blood CD19 Microbeads (Cat#130-090-880, Milteny) with the Whole Blood Column Kit (130-093-545, Milteny) according to the instruction leaflet. Isolated B-cells were adjusted to a cell density of 1 × 10^6 cells/ml in RPMI medium containing 10% FCS and 0.05 mM β-Mercaptoethanol (media and supplements are from Gibco). For each condition 100 µl of cell suspension was transferred into one well of a 96 well cell culture plate, respectively. For detection of p10, cells were treated with different concentrations of RO5459072 for 16 h in a cell culture incubator (37 °C; 5% CO2). Afterwards cells were lysed by adding 100 µl 2x NP-40 lysis buffer (20 mM Tris pH 8.0; 137 mM NaCl; 10% glycerol; 1% NP-40; 2 mM EDTA) containing HALT Protease inhibitor (Cat#78429, Pierce) for 30 min on ice. Before detection of accumulated p10-MHC-II complexes, interfering Ii-MHC-II associates were removed from the cell lysates. […] The CD74-18/3 antibody detects uncleaved invariant chain MHC-II complexes only. Afterwards p10-MHC-II complexes were analyzed by ELISA. For this purpose black Maxisorp plates from NUNC have been coated o/n with PIN.1 (5 µg/ml) from abcam (Cat#ab22603). The next day plates were blocked with blocking buffer for 1 h at 37 °C. Lysates containing 25,000 B-cells per condition were transferred to each well of the ELISA plate respectively and incubated together with the secondary antibody CD74-3/5-Biotin (15 ng/ml) o/n at 4 °C on a shaker. For signal amplification samples were incubated for 30 min with High Sensitive Streptavidin-HRP, 50 ng/ml (Cat#21134, Pierce). The amount of p10 was detected after 30 min of incubation with the QuantaBluTM Fluorogenic Substrate (Cat#15162, Pierce) at 325 nm excitation and 420 nm emission. In between each procedure of the ELISA assay the plates were washed twice with PBS−/− containing 0.05% TWEEN-20.
Supplementary figure 1. Biochemical and pharmacological profile of R05459072. (A)
Upregulation of invariant chain p10 levels in human B-cells was estimated by p10 ELISA, upon
treatment with increasing concentration of RO5459072.
upregulation in B-cells derived from 6 healthy volunteers. […]
In general terms: In an ELISA, binding on a coated surface is turned into a signal by an enzyme label.

The next test relates to MRL-(Fas)lpr mice. In words: Experimental lupus nephritis, late onset of treatment week 15 to 19. The test is classed as in vivo. Particulars: late onset week 15-19. As for the experimental part:
To further assess the potency of Cat-S inhibition to control advanced lupus nephritis we performed identical experiments with the highest dose of RO5459072 and MMF, which were not initiated before week 15 of age and continued for only 4 weeks and terminated again at week 19.
Four-week-old female MRL-(Fas)lpr mice were purchased from Harlan Winkelmann (Borchen, Germany) and kept under pathogen-free conditions in a 12 hour light and dark cycle with free access to food and water. All animal experiments were performed in accordance with the European protection laws of animal welfare, and with approval by the local government authorities Regierung von Oberbayern (reference number: 55.2.1-54-2532.2-11-12). At 11 or 15 weeks of age only mice with proteinuria (Albustix, Bayer AG, Leverkusen, Germany) were randomized into five different groups (n = 10) receiving different medicated diets: Three groups were fed with chow mixed with either 3, 10 or 30 mg/kg/day RO5459072, another group’s chow was mixed with 100 mg/kg/day mycophenolate mofetil (MMF), and one group received a standard diet (vehicle). The dose of MMF was chosen according to several studies reporting strong efficacy on SLE and lupus nephritis in MRL-(Fas)lpr mice[24]–[26]. […] At the age of 19 weeks all mice were sacrificed by cervical dislocation. Blood and urine samples were collected at different time points as indicated. In other experiments 7 week old female MRL-(Fas)lpr mice were randomized into three groups (n = 3) to receive a single intravenous injection of 10 µg sterile recombinant Cat-S and one group receiving vehicle (100 µl sterile PBS). One of the Cat-S groups was pretreated with 30 mg/kg/day RO5459072 starting one week prior to Cat-S injection; another group was pretreated with a total of four daily intra-peritoneal injections of the PAR-2 inhibitor GB83 (10 mg/kg).
Kidney tissue samples were collected from all mice and fixed overnight in 4% buffered formalin. Subsequently the fixed tissue samples were embedded in paraffin and cut into 4 µm thick serial sections. Kidney paraffin sections were stained with periodic acid-Schiff (PAS) reaction using standardized protocols as described. Scoring of lupus nephritis activity and chronicity indices was performed according to human lupus nephritis, [43]. Methenamine silver staining was performed on paraffin embedded kidney sections and semiquantitatively scored form 0–3 by a blinded observer. For immunostaining the following primary antibodies were used: anti-mouse CD3 (Abcam, Cambridge, UK), complement C3c (Biobyt Ltd, Cambridge, UK), CD31 (Dianova GmbH, Hamburg, Germany), WT1 (Santa Cruz Biotechnology, Dallas, Texas) and nephrin (Acris Antibodies, San Diego, CA). The immunostaining for C3c and CD31 were analyzed using the ImageJ software by measuring positively stained area and dividing it by the total area of the glomerulus and reported as percentage of +ve area. Sections stained for WT1/nephrin and CD3 were evaluated by counting positive cells per glomerulus. All the morphometric analysis were carried out in a blinded fashion.
Urinary albumin/creatinine ratios were determined using the Mouse Albumin ELISA Quantitation set (Bethyl Laboratories, Montgomery, TX) and the Creatinine FS kit (DiaSys Diagnostic Systems, Holzheim, Germany)[44]. BUN levels were determined in plasma samples using a Urea FS kit (DiaSys Diagnostic Systems). Mouse IgM, IgG and its isotypes IgG1, IgG2a and IgG2b plasma levels were measured using ELISA Sets (Bethyl Laboratories) at a plasma dilution of 1:1,000 to 1:100,000. Double-stranded DNA IgG and IgM antibodies were quantified as described. Briefly, 96 well Nunc-Immuno plates (Thermo Fisher Scientific, Roskilde, Denmark) were coated with poly-L-lysine (1:1 diluted with PBS) and incubated for two hours. After washing the plates, the plates were coated with 1 µg/ml mouse tail dsDNA sparing the wells for standards, which were coated with anti-mIgG and anti-mIgM (Bethyl Laboratories). […]

Read-outs that look alike come from different tables or passages of the source.

T1 sequence (P25774 115-331): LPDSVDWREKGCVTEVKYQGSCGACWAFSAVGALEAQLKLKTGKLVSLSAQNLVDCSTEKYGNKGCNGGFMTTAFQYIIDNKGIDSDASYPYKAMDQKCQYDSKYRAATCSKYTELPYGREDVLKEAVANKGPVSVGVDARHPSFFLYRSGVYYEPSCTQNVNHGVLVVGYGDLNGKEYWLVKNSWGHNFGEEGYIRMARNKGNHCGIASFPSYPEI

In the case of `Cn1cc(-c2ccc(S(=O)(=O)[C@@H]3C[C@@H](C(=O)NC4(C#N)CC4)N(C(=O)C4(C(F)(F)F)CC4)C3)c(C(F)(F)F)c2)cn1` [RO5459072], the EC50 in test [1] (average of 6 healthy volunteers, 16 h treatment, read-out: EC50 of lip10 (p10) induction in human B-cells, average) turned out to be 15.8 nM; in test [1] (donor D1, read-out: EC50 of p10 upregulation in human B-cells, donor D1) it was 26.4 nM; in test [1] (donor D2, read-out: EC50 of p10 upregulation in human B-cells, donor D2), 15.8 nM; in test [1] (donor D3, read-out: EC50 of p10 upregulation in human B-cells, donor D3), 19.1 nM; in test [1] (donor D4, read-out: EC50 of p10 upregulation in human B-cells, donor D4) it was 9.4 nM; in test [1] (donor D5, read-out: EC50 of p10 upregulation in human B-cells, donor D5), 12.6 nM. The EC50 in test [1] (donor D6, read-out: EC50 of p10 upregulation in human B-cells, donor D6) came out at 11.5 nM. Also, the “lupus nephritis disease activity index” value in the test on MRL-(Fas)lpr mice is recorded as “significantly reduced”. For the same compound, in the test on MRL-(Fas)lpr mice, the “lupus nephritis disease chronicity index” value is listed as “failed to significantly suppress”. The “proteinuria and BUN at week 19 compared to control mice” value with MRL-(Fas)lpr mice was “significantly reduced”. For the same compound, the “plasma IgG and its isotypes and anti-dsDNA IgG” value in the test on MRL-(Fas)lpr mice (highest dose of RO5459072, MMF) is recorded as “significantly suppressed”.
